The source made the active and inactive calls. No cut-off for these calls is given here.
What was measured:
Gamma-secretase [1] = test: Inhibition of gamma-secretase in human SHSY5Y cells expressing Swedish variant of APP K595N/M596L assessed as reduction of amyloid beta 42 formation after 16 hrs by ELISA; format: cell-based; settings: sh-sy5y
Gamma-secretase [2] = test: Inhibition of gamma-secretase in human SHSY5Y cells expressing Swedish variant of APP K595N/M596L assessed as reduction of amyloid beta 40 formation after 16 hrs by ELISA; format: cell-based; settings: sh-sy5y
[3] = Inhibition of gamma-secretase expressed in african green monkey CV1 cells coexpressing Gal4 DNA-binding/transactivation domain assessed as inhibition of notch processing after 22 hrs by luciferase reporter assay; format: cell-based; settings: CV-1, 22 h
CV-1 = test: Agonist activity at gamma-secretase expressed in african green monkey CV1 cells coexpressing Gal4 DNA-binding/transactivation domain assessed as increase of notch processing at 10 uM after 22 hrs by luciferase reporter assay; format: cell-based
SH-SY5Y = test: Cytotoxicity against human SH-SY5Y cells assessed as effect of cell viability at 100 uM after 24 hrs by WST1 assay; format: cell-based
[4] = Drug level in rat blood at 30 mg/kg, po after 6 hrs; format: ADME, organism-based; set-up: dose 30 mg/kg, route oral; settings: read-out: Drug uptake
[5] = Drug level in rat brain at 30 mg/kg, po after 6 hrs; format: ADME, organism-based; set-up: dose 30 mg/kg, route oral; settings: read-out: Drug uptake
Rattus norvegicus = test: Antialzheimer activity in rat assessed as reduction of amyloid beta 42 level in brain at 30 mg/kg, po after 6 hrs; format: functional; set-up: scale not given: the % may be the effect or the level left
[6] = Ratio of drug level in brain to blood in rat at 30 mg/kg, po after 6 hrs; format: ADME, organism-based; set-up: dose 30 mg/kg, route oral; settings: read-out: BBR
[7] = biological target: T1, Gamma-secretase (Homo sapiens) (UniProt Q96BI3+Q9NZ42+Q8WW43+P49768+Q92542+P49810); test: Inhibition of gamma-secretase in human SHSY5Y cells expressing Swedish variant of APP K595N/M596L assessed as reduction of amyloid beta 42 level after 24 hrs by DELFIA; format: cell-based; settings: SH-SY5Y
[8] = biological target: T1, Gamma-secretase (Homo sapiens); test: Inhibition of gamma-secretase in human SHSY5Y cells expressing Swedish variant of APP K595N/M596L assessed as reduction of amyloid beta 40 level after 24 hrs by DELFIA; format: cell-based; settings: SH-SY5Y
[9] = biological target: T1, Gamma-secretase (Homo sapiens); test: Inhibition of gamma-secretase in human SHSY5Y cells expressing Swedish variant of APP K595N/M596L assessed as reduction of total amyloid beta level after 24 hrs by DELFIA; format: cell-based; settings: SH-SY5Y
[10] = Clearance in Sprague-Dawley rat blood at 1 mg/kg, iv and 2 mg/kg, po; format: ADME, organism-based
[11] = Volume of distribution at steady state in Sprague-Dawley rat at 1 mg/kg, iv and 2 mg/kg, po; format: ADME, organism-based; settings: in vivo, read-out: Vdss
[12] = Half life in Sprague-Dawley rat at 1 mg/kg, iv and 2 mg/kg, po; format: ADME, organism-based; settings: in vivo
[13] = Oral bioavailability in Sprague-Dawley rat at 2 mg/kg; format: ADME, organism-based; settings: in vivo

Row | Compound | pIC50 (Gamma-secretase [1]) | pIC50 (Gamma-secretase [2]) | IC50 [3] [µM] | other results
1 | COc1cc(-c2ccc(NCc3ccc(F)cc3)nn2)ccc1-n1cnc(C)c1 | 6.5 | 6.2 | > 20 | 
2 | COc1cc(-c2ccc(NC(C)(C)c3ccc(F)cc3)nn2)ccc1-n1cnc(C)c1 | 7 | 6.1 |  | Activity (CV-1): > 30%
3 | COc1cc(-c2ccc(N[C@@H](C)c3ccc(C(F)(F)F)cc3)nn2)ccc1-n1cnc(C)c1 | 7.3 | 6.9 | > 20 | 
4 | COc1cc(-c2ccc(N[C@@H](C)c3cccc(F)c3)nn2)ccc1-n1cnc(C)c1 | 7.2 | 6.9 | > 20 | 
5 | COc1ccc([C@H](C)Nc2ccc(-c3ccc(-n4cnc(C)c4)c(OC)c3)nn2)cc1 | 6.8 | 6.8 | > 20 | 
6 | COc1cc(-c2ccc(N[C@H](C)c3ccc(F)cc3)nn2)ccc1-n1cnc(C)c1 | 6.2 | 6 | > 20 | 
7 | COc1cc(-c2nnc(N[C@@H](C)c3ccc(F)cc3)c(C)c2C)ccc1-n1cnc(C)c1 | 6.5 | 5.9 | > 20 | 
8 | COc1cc(-c2ccc(N[C@H](c3ccc(F)cc3)C(C)(C)O)nn2)ccc1-n1cnc(C)c1 | 7.4 | 6.8 | 20 | 
9 | COc1cc(-c2cc(C#N)c(N[C@@H](C)c3ccc(F)cc3)nn2)ccc1-n1cnc(C)c1 | 6.9 | 5.8 | 15.8 | 
10 | COC[C@H](Nc1ccc(-c2ccc(-n3cnc(C)c3)c(OC)c2)nn1)c1ccccc1 | 6.8 | 6.5 | > 20 | 
11 | COc1cc(-c2cc(C(F)(F)F)c(N[C@@H](C)c3ccc(F)cc3)nn2)ccc1-n1cnc(C)c1 | 7 | 5.6 |  | Activity (CV-1): > 30%
12 | COc1cc(-c2ccc(NC(=O)c3ccc(F)cc3)nn2)ccc1-n1cnc(C)c1 | 5.6 | 4.7 | 1 | 
13 | COc1cc(-c2nnc(N[C@@H](C)c3ccc(F)cc3)cc2C)ccc1-n1cnc(C)c1 | 6.7 | 6.3 | 15.8 | 
14 | CC[C@H](Nc1ccc(-c2ccc(-n3cnc(C)c3)c(OC)c2)nn1)c1ccc(F)cc1 | 7.3 | 6.9 | 10 | 
15 | COc1cc(-c2cc(C)c(N[C@@H](C)c3ccc(F)cc3)nn2)ccc1-n1cnc(C)c1 [listing 1 of 2 here] | 7.2 | 6.7 | 10 | Activity (SH-SY5Y): Toxic; concentration at 6 h [4]: 16 µM; concentration at 6 h [5]: 9.09 µM; Activity (Rattus norvegicus): >20%; Kp at 6 h [6]: 0.56
16 | COc1cc(-c2cc(C(C)C)c(N[C@@H](C)c3ccc(F)cc3)nn2)ccc1-n1cnc(C)c1 | 7.3 | 7 |  | Activity (CV-1): > 30%
17 | COc1cc(-c2ccc(N[C@@H](C)c3ccccc3)nn2)ccc1-n1cnc(C)c1 | 7.1 | 6.8 | > 20 | 
18 | COc1cc(-c2ccc(N[C@@H](C)c3ccccc3F)nn2)ccc1-n1cnc(C)c1 | 7.3 | 7.1 | 10 | 
19 | COc1cc(-c2cc(C)c(N[C@@H](C)c3ccc(F)cc3)nn2)ccc1-n1cnc(C)c1 [listing 2 of 2 here] |  |  |  | inhibition [7]: Dose-dependent effect; inhibition [8]: Dose-dependent effect; inhibition [9]: Active
20 | CCc1cc(-c2ccc(-n3cnc(C)c3)c(OC)c2)nnc1N[C@@H](C)c1ccc(F)cc1 | 7.2 | 6.8 |  | Activity (CV-1): > 30%
21 | COc1cc(-c2ccc(N[C@@H](C)c3ccc(F)cc3)nn2)ccc1-n1cnc(C)c1 | 7.2 | 6.7 | > 20 | 
22 | COc1cc(-c2cc(C)c(N[C@@H](C)c3ccc(F)cc3)nn2)ccc1-n1cnc(C)c1.Cl |  |  |  | clearance [10]: 5.1 mL/min/kg; Vd [11]: 1.4 L/kg; half-life [12]: 3.1 h; bioavailability [13]: 98%

— ChEMBL document CHEMBL1795222, “Pyridazine-derived γ-secretase modulators” (Bioorg Med Chem Lett, 2011)
